Experimental data reported in BindingDB's records for doi:10.1021/jm0205752 (University of Queensland, 2004).

Target: T1, Alpha-2A adrenergic receptor [16-465] (Rattus norvegicus, UniProt P22909)
T1 construct: 16-465
T1 sequence (P22909 whole entry): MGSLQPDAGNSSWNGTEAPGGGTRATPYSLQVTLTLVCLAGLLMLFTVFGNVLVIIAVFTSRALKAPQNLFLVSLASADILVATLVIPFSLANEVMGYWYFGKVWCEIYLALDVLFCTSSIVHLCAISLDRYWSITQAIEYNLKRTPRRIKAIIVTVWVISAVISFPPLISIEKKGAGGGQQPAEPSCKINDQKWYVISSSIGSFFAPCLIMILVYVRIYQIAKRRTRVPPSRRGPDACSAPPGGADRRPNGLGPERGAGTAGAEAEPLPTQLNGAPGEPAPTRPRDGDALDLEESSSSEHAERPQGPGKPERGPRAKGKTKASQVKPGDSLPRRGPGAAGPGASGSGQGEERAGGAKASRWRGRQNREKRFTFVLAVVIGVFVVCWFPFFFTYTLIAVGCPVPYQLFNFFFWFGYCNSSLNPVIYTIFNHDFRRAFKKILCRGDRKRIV
Assay: alpha-Adrenoceptor Radioligand Binding Assay
Settings: pH 7.7; 25 °C
Procedure: The binding affinity of compound was evaluated using [3H] Clonidine as ligand in competition binding experiments. Nonspecific binding was determined as the concentration of ligand bound in the presence of 2 uM phentolamine. Ki values were determined by the equation: Ki = IC50/(1 + [clonidine]/KD).

NS(=O)(=O)c1ccc2c(c1)CNCC2 [1,2,3,4-tetrahydroisoquinoline-7-sulfonamide] was tested, and the Ki was 100 µM.
